Biological target: hBTK (full-length BTK, 6HIS-tag cleaved) (Homo sapiens (Human), UniProt Q06187)
Assay: BTK enzymatic activity, IMAP-FP assay (Assay Method B)
Assay type: biochemical
Conditions: IMAP-FP, 1.05 nM hBTK, 5 μM ATP; class 100-1000 is given as ≧100 nM-<1 μM; read-out: IC50 Btk activity values - Assay Method B
Description: BTK enzymatic activity was determined in an IMAP-FP assay (Immobilized Metal ion Affinity-based fluorescence Polarization; Molecular Devices). […] Phosphorylation reactions were allowed to proceed for 120 minutes and were immediately quenched by the addition of 40 μL IMAP detection beads resuspended in IMAP progressive binding buffer (beads were diluted 1:600 in 75% and 25% progressive binding buffer A and B, respectively; Molecular Devices). Plates were read on Packard microplate reader after 60 minutes binding equilibration using Fluorescence Polarization protocol.

hBTK (full-length BTK, 6HIS-tag cleaved), sequence (Q06187 whole entry): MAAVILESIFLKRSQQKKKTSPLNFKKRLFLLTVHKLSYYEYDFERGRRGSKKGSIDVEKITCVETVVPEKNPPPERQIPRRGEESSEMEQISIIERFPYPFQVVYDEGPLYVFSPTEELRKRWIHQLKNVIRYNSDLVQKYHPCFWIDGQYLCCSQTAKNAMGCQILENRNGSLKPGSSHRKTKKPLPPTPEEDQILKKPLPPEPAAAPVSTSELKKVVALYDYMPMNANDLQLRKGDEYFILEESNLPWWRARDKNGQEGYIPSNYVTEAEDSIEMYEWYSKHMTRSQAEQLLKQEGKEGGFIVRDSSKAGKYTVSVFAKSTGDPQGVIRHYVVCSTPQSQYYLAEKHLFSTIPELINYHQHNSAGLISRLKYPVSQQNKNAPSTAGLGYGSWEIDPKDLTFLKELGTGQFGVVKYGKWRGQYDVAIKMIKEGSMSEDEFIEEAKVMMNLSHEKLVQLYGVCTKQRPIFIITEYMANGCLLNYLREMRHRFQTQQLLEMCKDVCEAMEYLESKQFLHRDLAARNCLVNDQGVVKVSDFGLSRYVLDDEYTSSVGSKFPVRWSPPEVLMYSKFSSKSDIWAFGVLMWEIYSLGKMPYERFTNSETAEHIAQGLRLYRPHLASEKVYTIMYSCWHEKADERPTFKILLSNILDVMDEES

IC50 [µM] | SMILES
0.01 to 0.1 | CCN1C[C@@H](c2nc(-c3ccc(C(=O)Nc4cc(C(F)(F)F)ccn4)cc3)c3c(N)nccn23)CC[C@@H]1C(F)(F)F [Example 406, 4-{8-amino-3-[(3S,6R)-1-ethyl-6-(trifluoromethyl)piperidin-3-yl]imidazo[1,5-a]pyrazin-1-yl}-N-[4-(trifluoromethyl)pyridin-2-yl]benzamide]
0.1 to 1 | Cn1cc(CN2CCS(=O)(=O)C(c3nc(-c4ccc(C(=O)Nc5cc(C(F)(F)F)ccn5)cc4)c4c(N)nccn34)C2)cn1 (stereo not shown) [Example 569, 4-(8-amino-3-{4-[(1-methyl-1H-pyrazol-4-yl)methyl]-1,1-dioxidothiomorpholin-2-yl}imidazo[1,5-a]pyrazin-1-yl)-N-[4-(trifluoromethyl)pyridin-2-yl]benzamide]
0.01 to 0.1 | Cn1cc(CN2CCO[C@@H](c3nc(-c4ccc(C(=O)Nc5cc(C6CC6)ccn5)cc4)c4c(N)nccn34)C2)cn1 [Example 498, 4-(8-amino-3-{(2R)-4-[(1-methyl-1H-pyrazol-4-yl)methyl]morpholin-2-yl}imidazo[1,5-a]pyrazin-1-yl)-N-(4-cyclopropylpyridin-2-yl)benzamide]
< 0.01 | COc1ccnc(NC(=O)c2ccc(-c3nc([C@@H]4CC[C@H](C)N(C(=O)C5(C)COC5)C4)n4ccnc(N)c34)cc2)c1 [Example 403, 4-(8-amino-3-{(3R,6S)-6-methyl-1-[(3-methyloxetan-3-yl)carbonyl]piperidin-3-yl}imidazo[1,5-a]pyrazin-1-yl)-N-(4-methoxypyridin-2-yl)benzamide]
0.1 to 1 | CN1CCN(C)[C@@H](c2nc(-c3ccc(C(=O)Nc4cc(C(F)(F)F)ccn4)cc3)c3c(N)nccn23)C1 [Example 565, 4-{8-amino-3-[(2R)-1,4-dimethylpiperazin-2-yl]imidazo[1,5-a]pyrazin-1-yl}-N-[4-(trifluoromethyl)pyridin-2-yl]benzamide]
0.01 to 0.1 | COCC1(C(=O)N2CCO[C@@H](c3nc(-c4ccc(C(=O)Nc5cc(C(F)(F)F)ccn5)cc4)c4c(N)nccn34)C2)CCC1 [Example 500, 4-{8-amino-3-[(2R)-4-{[1-(methoxymethyl)cyclobutyl]carbonyl}morpholin-2-yl]imidazo[1,5-a]pyrazin-1-yl}-N-[4-(trifluoromethyl)pyridin-2-yl]benzamide]
0.01 to 0.1 | CCN1CCO[C@@H](c2nc(-c3ccc(C(=O)Nc4cc(C(F)(F)F)ccn4)cc3)c3c(N)nccn23)C1 [Example 496, 4-{8-amino-3-[(2R)-4-ethylmorpholin-2-yl]imidazo[1,5-a]pyrazin-1-yl}-N-[4-(trifluoromethyl)pyridin-2-yl]benzamide]

The remaining lines, values behind:

SMILES | IC50 [µM]
Cn1cc(CN2CCO[C@@H](c3nc(-c4ccc(C(=O)Nc5cc(C(F)(F)F)ccn5)cc4)c4c(N)nccn34)C2)cn1 [Example 495, 4-(8-amino-3-{(2R)-4-[(1-methyl-1H-pyrazol-4-yl)methyl]morpholin-2-yl}imidazo[1,5-a]pyrazin-1-yl)-N-[4-(trifluoromethyl)pyridin-2-yl]benzamide] | 0.01 to 0.1
Nc1ncc(F)n2c([C@@H]3CCCN(C(=O)C4CC4)C3)nc(-c3ccc(C(=O)Nc4cc(C(F)(F)F)ccn4)cc3)c12 [Example 463, 4-{8-amino-3-[(3R)-1-(cyclopropylcarbonyl)piperidin-3-yl]-5-fluoroimidazo[1,5-a]pyrazin-1-yl}-N-[4-(trifluoromethyl)pyridin-2-yl]benzamide] | < 0.01
Cc1ccnc(NC(=O)c2ccc(-c3nc([C@@H]4CC[C@H](C)N(C(=O)C5(C)COC5)C4)n4ccnc(N)c34)cc2)c1 [Example 402, 4-(8-amino-3-{(3R,6S)-6-methyl-1-[(3-methyloxetan-3-yl)carbonyl]piperidin-3-yl}imidazo[1,5-a]pyrazin-1-yl)-N-(4-methylpyridin-2-yl)benzamide] | < 0.01
Nc1nccn2c([C@H]3CN(C(=O)C4(N)CCC4)CCO3)nc(-c3ccc(C(=O)Nc4cc(C(F)(F)F)ccn4)cc3)c12 [Example 499, 4-(8-amino-3-{(2R)-4-[(1-aminocyclobutyl)carbonyl]morpholin-2-yl}imidazo[1,5-a]pyrazin-1-yl)-N-[4-(trifluoromethyl)pyridin-2-yl]benzamide] | 0.01 to 0.1
Cc1cc(C(=O)Nc2cc(C(F)(F)F)ccn2)ccc1-c1nc([C@@H]2CCCN(C(=O)C3(C)COC3)C2)n2ccnc(N)c12 [Example 479, 4-(8-amino-3-{(3R)-1-[(3-methyloxetan-3-yl)carbonyl]piperidin-3-yl}imidazo[1,5-a]pyrazin-1-yl)-3-methyl-N-[4-(trifluoromethyl)pyridin-2-yl]benzamide] | 0.01 to 0.1
CC1(C(=O)N2CCC[C@@H](n3cc(-c4ccc(C(=O)Nc5cc(C#N)ccn5)cc4)c4c(N)ncnc43)C2)COC1 [Example 390, 4-(4-amino-7-{(3R)-1-[(3-methyloxetan-3-yl)carbonyl]piperidin-3-yl}-7H-pyrrolo[2,3-d]pyrimidin-5-yl)-N-(4-cyanopyridin-2-yl)benzamide] | 0.01 to 0.1
C[C@H]1C[C@@H](c2nc(-c3ccc(C(=O)Nc4cc(C(F)(F)F)ccn4)cc3)c3c(N)nccn23)CN(C(=O)C2(C)COC2)C1 [Example 374, 4-(8-amino-3-{(3R,5S)-5-methyl-1-[(3-methyloxetan-3-yl)carbonyl]piperidin-3-yl}imidazo[1,5-a]pyrazin-1-yl)-N-[4-(trifluoromethyl)pyridin-2-yl]benzamide] | < 0.01
CN1CCS(=O)(=O)C(c2nc(-c3ccc(C(=O)Nc4cc(C(F)(F)F)ccn4)cc3)c3c(N)nccn23)C1 (stereo not shown) [Example 570, 4-[8-amino-3-(4-methyl-1,1-dioxidothiomorpholin-2-yl)imidazo[1,5-a]pyrazin-1-yl]-N-[4-(trifluoromethyl)pyridin-2-yl]benzamide] | 0.1 to 1
CN1CCO[C@@H](c2nc(-c3ccc(C(=O)Nc4cc(C(F)(F)F)ccn4)cc3)c3c(N)nccn23)C1 [Example 497, 4-{8-amino-3-[(2R)-4-methylmorpholin-2-yl]imidazo[1,5-a]pyrazin-1-yl}-N-[4-(trifluoromethyl)pyridin-2-yl]benzamide] | 0.01 to 0.1
CC1(C(=O)N2CCC[C@@H](n3cc(-c4ccc(C(=O)Nc5cc(C(F)(F)F)ccn5)cc4)c4c(N)ncnc43)C2)COC1 [Example 389, 4-(4-amino-7-{(3R)-1-[(3-methyloxetan-3-yl)carbonyl]piperidin-3-yl}-7H-pyrrolo[2,3-d]pyrimidin-5-yl)-N-[4-(trifluoromethyl)pyridin-2-yl]benzamide] | < 0.01
CCOc1ccnc(NC(=O)c2ccc(-c3nc([C@@H]4CC[C@H](C)N(C(=O)C5(C)COC5)C4)n4ccnc(N)c34)cc2)c1 [Example 404, 4-(8-amino-3-{(3R,6S)-6-methyl-1-[(3-methyloxetan-3-yl)carbonyl]piperidin-3-yl}imidazo[1,5-a]pyrazin-1-yl)-N-(4-ethoxypyridin-2-yl)benzamide] | < 0.01
C[C@@H]1[C@H](c2nc(-c3ccc(C(=O)Nc4cc(C(F)(F)F)ccn4)cc3)c3c(N)nccn23)CCCN1C(=O)C1(C)COC1 [Example 379, 4-(8-amino-3-{(2R,3R)-2-methyl-1-[(3-methyloxetan-3-yl)carbonyl]piperidin-3-yl}imidazo[1,5-a]pyrazin-1-yl)-N-[4-(trifluoromethyl)pyridin-2-yl]benzamide] | < 0.01
C[C@@H]1C[C@@H](c2nc(-c3ccc(C(=O)Nc4cc(C(F)(F)F)ccn4)cc3)c3c(N)nccn23)CN(C(=O)C2(C)COC2)C1 [Example 375, 4-(8-amino-3-{(3R,5R)-5-methyl-1-[(3-methyloxetan-3-yl)carbonyl]piperidin-3-yl}imidazo[1,5-a]pyrazin-1-yl)-N-[4-(trifluoromethyl)pyridin-2-yl]benzamide] | 0.01 to 0.1
C[C@H]1CC[C@@H](c2nc(-c3ccc(C(=O)Nc4ccccn4)cc3)c3c(N)nccn23)CN1C(=O)C1CC1 (stereo in doubt) [Example 394, 4-{8-amino-3-[(3R,6S)-1-(cyclopropylcarbonyl)-6-methylpiperidin-3-yl]imidazo[1,5-a]pyrazin-1-yl}-N-pyridin-2-ylbenzamide] | < 0.01
C[C@H]1[C@H](c2nc(-c3ccc(C(=O)Nc4cc(C(F)(F)F)ccn4)cc3)c3c(N)nccn23)CCCN1C(=O)C1(C)COC1 [Example 380, 4-(8-amino-3-{(2S,3R)-2-methyl-1-[(3-methyloxetan-3-yl)carbonyl]piperidin-3-yl}imidazo[1,5-a]pyrazin-1-yl)-N-[4-(trifluoromethyl)pyridin-2-yl]benzamide] | 0.01 to 0.1

Reference: US9718828B2 (MERCK SHARP & DOHME CORP., priority 2011, dated 2017)
